The nature of data set [1]: refractive index (Na D-line) (dimensionless). The note with it: 298.15 K; 101.33 kPa; Liquid.
The conditions of data set [2]: for mass density: 298.15 K, 101.33 kPa.

Numbers after ± are expanded uncertainties.

The refractive index is the speed of light in vacuum divided by its phase velocity in the sample. As usually defined, the mass density is the mass of a sample divided by its volume. As a reminder, the vapor or sublimation pressure is the pressure of vapour in equilibrium with the condensed phase.

For the molecule `CC(C)CO` [2-methyl-1-propanol], the refractive index in data set [1] amounted to 1.3939 ± 0.001. Moreover, the mass density in data set [2] (Liquid) turned out to be 797.8 ± 2 kg/m3. Besides, the “vapor or sublimation pressure” value in data set [2] (379.55 K, Liquid) was 95.23 ± 4.8 kPa; in data set [2] (379.75 K, Liquid), 95.76 ± 4.8 kPa.
Turning to `Cc1ccccc1O` [2-methylphenol], the refractive index in data set [1] stood at 1.5468 ± 0.001. Besides, in data set [2] (Liquid), the mass density is recorded as 1046 ± 2.9 kg/m3. In addition, the “vapor or sublimation pressure” value in data set [2] (461.85 K, Liquid) is listed as 95.76 ± 4.8 kPa.
On to `CC(C)(C)O` [2-methylpropan-2-ol], for which the refractive index in data set [1] is 1.3852 ± 0.001. In data set [2] (Liquid), the mass density was 781.2 ± 2 kg/m3. For the same molecule, the “vapor or sublimation pressure” value in data set [2] (354.05 K, Liquid) is listed as 95.23 ± 4.8 kPa; in data set [2] (354.15 K, Liquid), 95.76 ± 4.8 kPa.
On to `Cc1ccc(O)cc1` [4-methylphenol], for which the refractive index in data set [1] was determined as 1.539 ± 0.001. Moreover, in data set [2] (Crystal), the mass density is given as 1155 ± 4 kg/m3. Also, the “vapor or sublimation pressure” value in data set [2] (472.85 K, Liquid) was 95.23 ± 4.8 kPa.
Consider `CCCCO` [butan-1-ol], for which the refractive index in data set [1] is recorded as 1.3974 ± 0.001. Also, the mass density in data set [2] (Liquid) worked out at 805.8 ± 2.1 kg/m3. The “vapor or sublimation pressure” value was determined as 95.76 ± 4.8 kPa in data set [2] (389.45 K, Liquid) and 95.23 ± 4.8 kPa in data set [2] (391.55 K, Liquid).
Take `CCC(C)O` (stereo not drawn) [butan-2-ol]: the refractive index in data set [1] is on record as 1.3953 ± 0.001. For the same molecule, in data set [2] (Liquid), the mass density turned out to be 802.4 ± 2.1 kg/m3. For the same molecule, the “vapor or sublimation pressure” value in data set [2] (371.15 K, Liquid) came out at 95.23 ± 4.8 kPa; in data set [2] (371.35 K, Liquid) it was 95.76 ± 4.8 kPa.
Regarding `CCO` [ethanol], in data set [1], the refractive index is on record as 1.3594 ± 0.001. Further, the mass density in data set [2] (Liquid) is given as 784.9 ± 2 kg/m3. The “vapor or sublimation pressure” value in data set [2] (349.95 K, Liquid) was determined as 95.23 ± 4.8 kPa; in data set [2] (350.05 K, Liquid) it was 95.76 ± 4.8 kPa.
`CO` [methanol]: the refractive index in data set [1] is 1.3265 ± 0.001. Moreover, the mass density in data set [2] (Liquid) is 786.4 ± 2 kg/m3. Besides, the “vapor or sublimation pressure” value in data set [2] (336.15 K, Liquid) is 95.23 ± 4.8 kPa; in data set [2] (336.35 K, Liquid) it was 95.76 ± 4.8 kPa.
As for `CCCO` [propan-1-ol], in data set [1], the refractive index was found to be 1.3837 ± 0.0008. Also, in data set [2] (Liquid), the mass density is 799.6 ± 2.2 kg/m3. In addition, the “vapor or sublimation pressure” value stood at 95.23 ± 4.8 kPa in data set [2] (368.85 K, Liquid) and 95.76 ± 4.8 kPa in data set [2] (368.95 K, Liquid).
Consider `CC(C)O` [propan-2-ol], for which the refractive index in data set [1] was found to be 1.3752 ± 0.001. Besides, in data set [2] (Liquid), the mass density was 781.3 ± 2 kg/m3. In addition, the “vapor or sublimation pressure” value in data set [2] (353.95 K, Liquid) is on record as 95.23 ± 4.8 kPa; in data set [2] (354.05 K, Liquid) it was 95.76 ± 4.8 kPa.
